The values below come from patent US20260355212A1 (priority 2022, published 2026).

Like-named read-outs stand apart in the source and are kept apart here.

By IC50 is commonly meant the concentration needed to halve the response being measured.

In assay [1] the target is HCoV-NL63 Mpro (Human coronavirus NL63, UniProt P0C6X5). Nature of the assay: HCoV-NL63 Mpro enzymatic inhibition assay (fluorescence). The class given is biochemical. A digest of the protocol: (§1)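 E. coli-expressed Mpro was preincubated with 10-dose, 3-fold diluted compound for 30 min at room temperature before fluorogenic substrate was added. After 60 min at 30 °C, fluorescence was read at Ex/Em 340/490 nm. Inhibition % was normalized to DMSO and GC376 controls with no-enzyme background correction, and IC50 came from a four-parameter fit.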
Sequence of HCoV-NL63 Mpro (P0C6X5 2940-3242 limits assumed): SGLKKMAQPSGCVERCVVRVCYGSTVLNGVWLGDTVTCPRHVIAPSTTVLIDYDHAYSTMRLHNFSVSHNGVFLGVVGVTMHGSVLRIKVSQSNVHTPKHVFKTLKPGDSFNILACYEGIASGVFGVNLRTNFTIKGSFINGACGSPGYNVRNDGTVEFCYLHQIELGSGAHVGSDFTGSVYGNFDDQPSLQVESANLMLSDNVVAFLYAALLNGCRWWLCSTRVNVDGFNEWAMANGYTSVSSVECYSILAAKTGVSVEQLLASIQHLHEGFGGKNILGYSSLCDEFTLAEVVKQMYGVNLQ

In assay [2] the target is HCoV-229E Mpro (Human coronavirus 229E, UniProt P0C6X1). Briefly: HCoV-229E Mpro enzymatic inhibition assay (fluorescence). The class given is biochemical.
Sequence of HCoV-229E Mpro (P0C6X1 2966-3267 limits assumed): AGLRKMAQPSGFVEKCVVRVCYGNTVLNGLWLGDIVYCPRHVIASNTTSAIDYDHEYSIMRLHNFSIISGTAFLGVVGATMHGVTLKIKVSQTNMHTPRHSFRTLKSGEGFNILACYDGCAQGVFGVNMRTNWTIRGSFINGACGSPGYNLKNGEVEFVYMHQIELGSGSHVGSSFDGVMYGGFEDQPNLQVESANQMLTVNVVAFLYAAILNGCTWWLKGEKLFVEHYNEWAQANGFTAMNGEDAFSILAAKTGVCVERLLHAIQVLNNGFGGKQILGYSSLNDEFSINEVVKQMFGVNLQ
In assay [3] the target is SARS-CoV-1 Mpro (Severe acute respiratory syndrome coronavirus, UniProt P0C6X7). Briefly: biochemical.
The target in assay [4] is HCoV-OC43 Mpro (Human coronavirus OC43, UniProt P0C6X6). Nature of the assay: HCoV-OC43 Mpro enzymatic inhibition assay (fluorescence). The format is biochemical. In a few lines:
as §1

For assay [5], the target named is MERS Mpro (Middle East respiratory syndrome-related coronavirus, UniProt K9N7C7). Briefly: biochemical. Also noted: species or system MERS-CoV.
Sequence of MERS Mpro (K9N7C7 3248-3553 limits assumed): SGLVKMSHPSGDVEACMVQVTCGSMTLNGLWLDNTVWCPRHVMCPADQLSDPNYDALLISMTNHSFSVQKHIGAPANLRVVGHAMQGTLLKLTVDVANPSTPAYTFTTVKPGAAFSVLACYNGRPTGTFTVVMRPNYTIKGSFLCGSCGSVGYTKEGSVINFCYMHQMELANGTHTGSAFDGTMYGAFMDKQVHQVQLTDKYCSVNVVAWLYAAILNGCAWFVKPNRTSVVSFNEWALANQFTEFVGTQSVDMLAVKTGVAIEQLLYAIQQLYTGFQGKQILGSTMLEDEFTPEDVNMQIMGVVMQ
Assay [6] deals with SARS-CoV-2 Mpro (Severe acute respiratory syndrome coronavirus 2, UniProt P0DTD1). Nature of the assay: SARS-CoV-2 Mpro enzymatic inhibition assay (fluorescence). The class given is biochemical. In a few lines:
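Recombinant Mpro expressed in E. coli was preincubated 30 min at room temperature with 10-point, 3-fold serially diluted compound in duplicate. Fluorogenic substrate was then added and incubated 60 min at 30° C, and fluorescence read at Ex/Em 340/490 nm. IC50 came from a four-parameter fit of % inhibition.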

In assay [7] the target is HCoV-HKU1 Mpro (Human coronavirus HKU1, UniProt P0C6X2). Nature of the assay: HCoV-HKU1 Mpro enzymatic inhibition assay (fluorescence). The class given is biochemical. A digest of the protocol: as §1
Sequence of HCoV-HKU1 Mpro (P0C6X2 3335-3637 limits assumed): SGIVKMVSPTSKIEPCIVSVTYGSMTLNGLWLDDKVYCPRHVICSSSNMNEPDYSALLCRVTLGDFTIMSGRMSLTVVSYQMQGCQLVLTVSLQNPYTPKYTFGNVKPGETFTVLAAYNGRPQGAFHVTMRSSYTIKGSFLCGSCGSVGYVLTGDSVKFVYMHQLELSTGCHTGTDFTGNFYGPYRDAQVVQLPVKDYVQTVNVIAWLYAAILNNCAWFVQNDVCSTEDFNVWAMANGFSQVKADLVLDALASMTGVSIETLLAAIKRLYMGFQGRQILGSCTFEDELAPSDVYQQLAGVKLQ

Sequence of HCoV-OC43 Mpro (P0C6X6 3247-3549 limits assumed): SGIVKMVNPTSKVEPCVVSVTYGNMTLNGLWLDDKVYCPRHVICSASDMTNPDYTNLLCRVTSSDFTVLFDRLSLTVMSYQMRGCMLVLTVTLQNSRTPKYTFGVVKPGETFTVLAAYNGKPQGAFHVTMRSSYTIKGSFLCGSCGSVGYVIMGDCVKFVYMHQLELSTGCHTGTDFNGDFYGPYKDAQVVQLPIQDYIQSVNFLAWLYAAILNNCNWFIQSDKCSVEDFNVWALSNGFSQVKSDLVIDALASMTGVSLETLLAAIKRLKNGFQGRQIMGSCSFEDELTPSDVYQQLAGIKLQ

As to `CC1(C)[C@@H]2[C@@H](C(=O)N[C@H](C=O)C[C@@H]3CCNC3=O)N(C(=O)C3CCCC3)C[C@@H]21` [Compound 124, (1R,2S,5S)-3-(Cyclopentanecarbonyl)-6,6-dimethyl-N—((S)-1-oxo-3-((S)-2-oxopyrrolidin-3-yl)propan-2-yl)-3-azabicyclo[3.1.0]hexane-2-carboxamide], the half-inhibitory concentration (IC50) in assay [1] was 2500 nM; in assay [2], 162 nM; in assay [3] it was 473 nM; in assay [4] it was 490 nM; in assay [5], 2000 nM; in assay [6] (mean, 25 nM protein, 25 μM substrate, 30 min pre-incubation, 60 min at 30° C., read-out: Mpro_SARS-CoV-2 mean IC50) it was 211 nM. This compound gave a half-inhibitory concentration (IC50) in assay [7] of 407 nM.
For the compound `O=C[C@H](C[C@@H]1CCNC1=O)NC(=O)[C@@H]1C[C@@H]2C[C@@H]2N1C(=O)c1cc2ccccc2[nH]1` [Compound 125, (1S,3S,5S)-2-(1H-Indole-2-carbonyl)-N—((S)-1-oxo-3-((S)-2-oxopyrrolidin-3-yl)propan-2-yl)-2-azabicyclo[3.1.0]hexane-3-carboxamide], the IC50 came out at 218 nM in assay [1]; 116 nM in assay [2]; 685 nM in assay [3]; 284 nM in assay [4]; 916 nM in assay [5]; 228 nM in assay [6]. In addition, the IC50 in assay [7] stood at 154 nM.
In the case of `O=C[C@H](C[C@@H]1CCNC1=O)NC(=O)[C@@H]1CC2(CC2)CN1C(=O)CC1CCCCC1` [Compound 126, (S)-5-(2-Cyclohexylacetyl)-N—((S)-1-oxo-3-((S)-2-oxopyrrolidin-3-yl)propan-2-yl)-5-azaspiro[2.4]heptane-6-carboxamide], the IC50 in assay [1] was 97.7 nM; in assay [2], 56.3 nM; in assay [3] it was 84.5 nM; in assay [4] it was 112 nM; in assay [5], 358 nM; in assay [6] it was 231 nM. Inhibition in assay [7] was half-maximal at 38.4 nM (IC50).
For the compound `O=C1NCC[C@H]1C[C@H](NC(=O)[C@@H]1CC2(CC2)CN1C(=O)c1cc2ccccc2[nH]1)C(=O)c1nc2ccccc2s1` [Compound 127, (S)—N—((S)-1-(benzo[d]thiazol-2-yl)-1-oxo-3-((S)-2-oxopyrrolidin-3-yl)propan-2-yl)-5-(1H-indole-2-carbonyl)-5-azaspiro[2.4]heptane-6-carboxamide], the IC50 in assay [1] worked out at 195 nM; in assay [2] it was 95.1 nM; in assay [3], 600 nM; in assay [4] it was 507 nM; in assay [5] it was 409 nM; in assay [6], 261 nM. Half-maximal inhibition in assay [7] (IC50) was put at 372 nM.
As to `CC1(C)[C@@H]2[C@@H](C(=O)N[C@H](C#N)C[C@@H]3CCNC3=O)N(C(=O)c3cc4c(F)ccc(Cl)c4[nH]3)C[C@@H]21` [Compound 128, (1R,2S,5S)-3-(7-Chloro-4-fluoro-1H-indole-2-carbonyl)-N—((S)-1-cyano-2-((S)-2-oxopyrrolidin-3-yl)ethyl)-6,6-dimethyl-3-azabicyclo[3.1.0]hexane-2-carboxamide], the half-maximal inhibitory concentration (IC50) amounted to 3980 nM in assay [1]; 1230 nM in assay [2]; 788 nM in assay [3]; 1990 nM in assay [4]; 5580 nM in assay [5]; 318 nM in assay [6]. Also, the IC50 in assay [7] is 1900 nM.
As to `O=C[C@H](C[C@@H]1CCNC1=O)NC(=O)[C@@H]1C[C@@H]2CCC[C@@H]2N1C(=O)c1cc2ccccc2[nH]1` [Compound 129, (2S,3aS,6aS)-1-(1H-Indole-2-carbonyl)-N—((S)-1-oxo-3-((S)-2-oxopyrrolidin-3-yl)propan-2-yl)octahydrocyclopenta[b]pyrrole-2-carboxamide], the IC50 was 51 nM in assay [1]; 38 nM in assay [2]; 874 nM in assay [3]; 166 nM in assay [4]; 1110 nM in assay [5]; 351 nM in assay [6]. In assay [7], this compound gave an IC50 of 76 nM.
With `O=C[C@H](C[C@@H]1CCNC1=O)NC(=O)[C@@H]1[C@H]2C[C@H]2CN1C(=O)c1cc2ccccc2[nH]1` [Compound 130, (1S,2S,5R)-3-(1H-Indole-2-carbonyl)-N—((S)-1-oxo-3-((S)-2-oxopyrrolidin-3-yl)propan-2-yl)-3-azabicyclo[3.1.0]hexane-2-carboxamide], the IC50 in assay [1] came to 130 nM; in assay [2], 191 nM; in assay [3] it was 832 nM; in assay [4], 398 nM; in assay [5], 838 nM; in assay [6], 372 nM. This compound yielded a half-maximal inhibitory concentration (IC50) in assay [7] of 87.4 nM.
As to `CC(C)c1ccc(F)c2[nH]c(C(=O)N3C[C@H]4[C@@H]([C@H]3C(=O)N[C@H](C#N)C[C@@H]3CCNC3=O)C4(C)C)cc12` [Compound 131, (1R,2S,5S)—N—((S)-1-Cyano-2-((S)-2-oxopyrrolidin-3-yl)ethyl)-3-(7-fluoro-4-isopropyl-1H-indole-2-carbonyl)-6,6-dimethyl-3-azabicyclo[3.1.0]hexane-2-carboxamide], the IC50 came to 1590 nM in assay [1]; 690 nM in assay [2]; 772 nM in assay [3]; 1540 nM in assay [4]; 9760 nM in assay [5]; 401 nM in assay [6]. Moreover, the IC50 in assay [7] came to 1140 nM.
`CC1(C)[C@@H]2[C@@H](C(=O)N[C@H](C#N)C[C@@H]3CCNC3=O)N(C(=O)c3cc4cccc(Cl)c4[nH]3)C[C@@H]21` [Compound 132, (1R,2S,5S)-3-(7-Chloro-1H-indole-2-carbonyl)-N—((S)-1-cyano-2-((S)-2-oxopyrrolidin-3-yl)ethyl)-6,6-dimethyl-3-azabicyclo[3.1.0]hexane-2-carboxamide]: the concentration for half-maximal inhibition (IC50) was 3970 nM in assay [1]; 1210 nM in assay [2]; 873 nM in assay [3]; 3010 nM in assay [4]; 5440 nM in assay [5]; 434 nM in assay [6]. This compound had a half-inhibitory concentration (IC50) in assay [7] of 1910 nM.
Take `CC1(C)[C@@H]2[C@@H](C(=O)N[C@H](C#N)C[C@@H]3CCNC3=O)N(C(=O)C3(c4ccccc4)CC3)C[C@@H]21` [Compound 135, (1R,2S,5S)—N—((S)-1-Cyano-2-((S)-2-oxopyrrolidin-3-yl)ethyl)-6,6-dimethyl-3-(1-phenylcyclopropanecarbonyl)-3-azabicyclo[3.1.0]hexane-2-carboxamide]: the IC50 in assay [1] was 11800 nM; in assay [2], 3460 nM; in assay [3], 571 nM; in assay [4], 1870 nM; in assay [5], 4540 nM; in assay [6], 468 nM. In addition, the midpoint of inhibition in assay [7], the IC50, lay at 766 nM.
As to `CC1(C)[C@@H]2[C@@H](C(=O)N[C@H](C#N)C[C@@H]3CCNC3=O)N(C(=O)C3(c4ccccc4)CCCC3)C[C@@H]21` [Compound 136, (1R,2S,5S)—N—((S)-1-Cyano-2-((S)-2-oxopyrrolidin-3-yl)ethyl)-6,6-dimethyl-3-(1-phenylcyclopentanecarbonyl)-3-azabicyclo[3.1.0]hexane-2-carboxamide], the IC50 in assay [1] worked out at 13900 nM; in assay [2], 3050 nM; in assay [3], 767 nM; in assay [4], 3980 nM; in assay [5] it was 8410 nM; in assay [6], 470 nM. In assay [7], this compound came in with an IC50 of 1630 nM.
